Source: US20130183322A1, “IMMUNOSUPPRESSIVE DRUG COMBINATION FOR A STABLE AND LONG TERM ENGRAFTMENT” (YEDA RESEARCH AND DEVELOPMENT CO., LTD., priority 2011, published 2013)

Key:
[1] = tested on: C57BL/6 (Ly-5.2) recipient mice; assay: Determination of the minimal myeloablation with busulphan: donor type chimerism after congenic T cell depleted bone marrow transplant; assay type: in vivo
From the text: Animals: 6-12 week old female mice were used of the following strains: C57BL/6 (B6, recipient, H-2b, Ly-5.2), B6.SJL-Ptprca Pep3b/BoyJ (congenic strain, donor, H-2b, Ly-5.1) Balb/c (donor, H-2d) and C3H/Hen (recipient, H-2k) mice (all purchased from Harlan Laboratories Ltd, Ein Kerem Breeding farm Jerusalem). All mice were housed under specific pathogen free conditions and maintained under conditions approved by the Institutional Animal Care and Use Committee at the Weizmann Institute of Science.
Determination of the minimal myeloablation with Busulphan: Different groups of C57BL/6 (Ly-5.2) recipient mice were conditioned with the following final doses of IV Busulfex (Otsuka America Pharmaceutical, Inc.): 10, 20, 40, 50, 60, 80, and 100 mg/Kg/mouse. The final doses of IV Busulfex were divided in two and administered (IP) on day −2 and −1. On day 0, 25×10^6 T-depleted bone marrow cells isolated from B6.SJL-Ptprca Pep3b/BoyJ (Ly-5.1) donors were transplanted (IV) and the establishment of donor type chimerism was defined 1 and 12 month post transplant in the blood, spleen, and BM by FACS analysis of the congenic donor marker (Ly-5.1). Phenotypic expression analysis of CD8, CD4, CD45/B220 and CD11b markers on the LY-5.1^+ (donor) cells in the spleen and the BM of the donor chimera, was performed 12 month post transplant.
Flow cytometry for chimerism and multilineage analysis: For chimerism analysis, blood mononuclear cells were stained with labeled antibodies specific for Host (H-2K^k-phycoerythrin (PE)) and donor (H-2D^d-fluorescein isothiocyanate (FITC)) MHC class-I antigens. In the congenic model, anti-CD45.2-PE and anti-CD45.1-FITC antibodies were used to distinguish between the host and the donor.
Considering the importance of providing empty niches for successful BM engraftment, the present inventors initially determined the minimal myeloablation with busulphan which induced durable chimerism following infusion of congenic B6-SJL (Ly-5.1) T cell depleted bone marrow (TDBM, 25×10^6) into B6 (Ly-5.2) mice. […] Consequently, the sublethal dose of 60 mg/Kg was selected for further use in all attempts to induce allogeneic chimerism, in conjunction with transient debulking of host lymphocytes by a single infusion of anti-CD4 and anti-CD8 depleting antibodies.

[2] = tested on: C3H/Hej (H-2Kk) recipient mice; assay: Chimerism induction: allogeneic T-depleted BM transplant under non myeloablative conditioning and co-stimulatory blockade; assay type: in vivo
Method: C3H/Hen recipient mice were conditioned with busulfan (2×30 mg/Kg) and T cell debulking with […] anti-CD4 and anti-CD8. Post transplant treatment included […] CTLA4/FC, […] anti-CD48, and 0.1 mg FTY720 administered at the indicated time points.
Non myeloablative conditioning and co-stimulatory blockade Protocol: C3H/Hej (H-2K^k) recipient mice were conditioned with 30 mg/kg IV Busulfex on days −3 and −2 following T cell debulking on day −6 with 300 μg anti-CD4 (Bio Express, clone Gk1.5) and anti-CD8 (Bio Express, cone 53.6.72) antibodies. On day 0, 25×10^6 T-depleted BM cells from Balb/c-Nude (H-2D^d) donors were transplanted and subjected to co-stimulation blockade consisting of 200 μg CTLA4/FC (Chimerigen Laboratories), 250 μg anti-CD48 (Bio Express, clone HM 48) and 0.1 mg FTY720 (Novartis) that was administered as follows: CTLA4/FC and anti-CD48 were injected IP on days 0, 2, 4, 6, 21 and 35 while FTY720 was inoculated per OS for 5 days from day 0 to 5 and from day 6 till day 90 twice a week. Chimerism analysis was monitored every 30 days by FACS analysis. […]
Multilineage Chimerism was performed on donor chimera 70 to 163 days post transplant. […] Fluorescence-activated cell sorting (FACS) analysis was performed using a modified Becton Dickinson FACScan.

CS(=O)(=O)OCCCCOS(C)(=O)=O [busulphan]
donor type chimerism ([1]; at doses higher than 50 mg/Kg (tested 10 to 100 mg/Kg)): above 50%
donor type chimerism ([1]; busulphan 50 mg/Kg, congenic B6-SJL (Ly-5.1) TDBM 25x10^6 into B6 (Ly-5.2) mice): 40±26%
donor type chimerism ([1]; busulphan 60 mg/Kg, congenic B6-SJL (Ly-5.1) TDBM 25x10^6 into B6 (Ly-5.2) mice): 66±7%
donor type chimerism ([1]; busulphan 100 mg/Kg, congenic B6-SJL (Ly-5.1) TDBM 25x10^6 into B6 (Ly-5.2) mice): 75±2%

CCCCCCCCc1ccc(CCC(N)(CO)CO)cc1.Cl [FTY720, 2-amino-2-[2-(4-octylphenyl)ethyl]propane-1,3-diol hydrochloride]
chimerism achieved (in words) ([2]; allogeneic megadose TDBM after busulfan 60 mg/Kg plus anti-CD4/anti-CD8 debulking, post transplant treatment): no chimerism
mice with donor type chimerism (number of mice) ([2]; two independent experiments, median follow-up 116 days (range 70 to 163) beyond cessation of immune suppression, for the combination, mice with more than 80% chimerism): 0 out of 7
